The values that follow come from patent US20260337189A1, “Cryptolepine Salt Derivative, Preparation Method, and Use Thereof” (ZHEJIANG XINNONG CHEMICAL CO., LTD., priority 2023, published 2026).

Experiment [1] has as its system tobacco Mosaic virus (TMV). Description: Living passivation activity test against tobacco Mosaic virus (TMV). It counts as in vivo. The note with it: 500 mg/L, tobacco Xanthi nc, sample mixed with virus juice 30 min, virus 20 μg/mL, 3 days; for inhibition at 500 µg/mL: Tobacco mosaic virus, read-out: Relative inhibition rate, living passivation activity test. The protocol:
(§1) Determination of anti-tobacco Mosaic virus (TMV) activity by the following procedure:
(§2) After weighing, cryptolepine salt derivative, ningnanmycin and the original drug of ribavirin were dissolved in DMF to obtain 1×10^5 μg/mL mother solution, and then diluted to the required concentration with 1%. Tween 80 aqueous solution.
(§3) Select the 3-5 leaf stage of tobacco Xanthi nc with uniform growth, mix the test sample agent with the same volume of virus juice to passivate for 30 min, friction inoculation, virus concentration 20 μg/mL, the leaf was washed with running water after inoculation, repeat 3 times, set 1%. Tween 80 aqueous solution as control. 3 days later, the number of disease spots was calculated.
(§4) Relative inhibition rate (%)=[(number of dead spots of control group-number of dead spots of test sample group)/number of dead spots of control group]×100%.
(§5) Anti-tobacco Mosaic virus passivation activity test of all compounds was at a treatment dose of 500 μg/mL. The positive control was the commercial anti-plant virus agent viriazole.

Experiment [2] concerns tobacco Mosaic virus (TMV). Description: Live treatment effect against tobacco Mosaic virus (TMV). It counts as in vivo. The note with it: 500 mg/L, tobacco Xanthi nc, sprayed after inoculation, virus 10 μg/mL, 3 days; for inhibition at 500 µg/mL: Tobacco mosaic virus, 72 h, read-out: Relative inhibition rate, live treatment effect. As to the method:
as §1, §2
(§6) Select the 3-5 leaf stage of tobacco Xanthi nc with uniform growth, use a brush to vaccinate the virus in the whole leaf, the virus concentration is 10 μg/mL, and the leaf was washed with running water after inoculation. After the leaves were dried, the whole plant was sprayed with test sample, repeated 3 times every treatment, and 1%. Tween 80 aqueous solution was set as control. After 3 days, the number of disease spots was recorded and the prevention and control effect was calculated.
as §4

A further experiment has as its system rice sheath blight. The experiment is described as follows: Test of resistance to rice sheath blight (bactericidal activity test). The conditions noted are these: for Resistance to rice sheath blight: 400 mg/L, rice seedlings, sprayed 24 h before inoculation, 6 days after inoculation, visual inspection; for bactericidal activity against rice sheath blight: live pot test, Table 5, 400 mg/L. It counts as in vivo. The protocol: Bactericidal activity test, the determination procedure is as follows:
Test of resistance to rice sheath blight: Select uniformly growing rice seedlings and spray them on the leaves at the set concentration, set a water spraying group as blank control, every treatment was repeated twice. After 24 h, the rice seedlings were inoculated with rice sheath blight strains and placed at room temperature (25±4° C.) for normal management after inoculation. The prevention and control effect was investigated by visual inspection 6 days after inoculation.

The test system of experiment [3] is tobacco Mosaic virus (TMV). Description: Live protection function against tobacco Mosaic virus (TMV). It counts as in vivo. The note with it: for Relative inhibition rate, live protection function: 500 mg/L, tobacco Xanthi nc, sprayed 24 h before inoculation, virus 10 μg/mL, 3 days; for inhibition at 500 µg/mL: Tobacco mosaic virus, read-out: Relative inhibition rate, live protection function. As to the method:
as §1, §2
(§7) Select the 3-5 leaf stage of tobacco Xanthi nc with uniform growth, spray the whole plant, repeat each treatment 3 times, and set 1%. Tween80 aqueous solution as control. 24 h later, the leaf surface was coated with emery (500 mesh), the disease venom was dipped with a brush, and the whole leaf surface was gently rubbed twice along the direction of the branch pulse by using the brush, the leaf was supported by palm of hand, the virus concentration was 10 μg/mL, and the leaf was washed by water after inoculation. After 3 days, the number of disease spots was recorded and the prevention and control effect was calculated.
as §4

Experiment [4] relates to tobacco Mosaic virus (TMV). Description: Anti-tobacco Mosaic virus (TMV) activity, overall comparison of Test Example 1. It counts as in vivo. The note with it: 500 μg/mL; Table 4. As to the method:
as §1, §2, §7, §6, §3, §4, §5

In another experiment the test system is Plasmodium falciparum. The conditions noted are these: cited from earlier work.

The structures appear in SMILES notation.

Regarding `Cc1ccc(S(=O)(=O)n2c3ccc(F)cc3c3c2cc2ccccc2[n+]3C)cc1` [Example 4], in experiment [1], the “Relative inhibition rate, living passivation activity test” value is 14.1 ± 1.3%. Further, in experiment [2], the “Relative inhibition rate, live treatment effect” value is 18.6 ± 1.2%. In the experiment with rice sheath blight, the “Resistance to rice sheath blight” value came out at 60 ± 0% and the “bactericidal activity against rice sheath blight” value is listed as “more than 50%”. Further, the “Relative inhibition rate, live protection function” value in experiment [3] is on record as 21.6 ± 3.4%.

Consider `Cc1ccc(S(=O)(=O)n2c3ccc(I)cc3c3c2cc2ccccc2[n+]3C)cc1.[Cl-]` [Example 7], for which the inhibition at 500 µg/mL worked out at 47.7 ± 3.1% in experiment [1], 43 ± 3.5% in experiment [2] and 44.5 ± 0.4% in experiment [3]. For the same compound, in the experiment on rice sheath blight, the “Resistance to rice sheath blight” value was determined as 40 ± 0%. Besides, the “TMV activity compared with ribavirin” value in experiment [4] is recorded as “better TMV activity than the ribavirin”.

With `CCCCCNc1c2ccccc2[n+](C)c2c1[nH]c1ccccc12` [Example 24], the inhibition at 500 µg/mL in experiment [1] was found to be 35.2 ± 1%; in experiment [2] it was 30.3 ± 0.8%; in experiment [3], 36.9 ± 3.7%. For the same compound, in the experiment on rice sheath blight, the “Resistance to rice sheath blight” value came to 30 ± 0%.

As to `CCCCCCCCCCCCNc1c2ccccc2[n+](C)c2c1[nH]c1ccccc12` [Example 25], the inhibition at 500 µg/mL was 35.1 ± 0.1% in experiment [1], 22.1 ± 1.1% in experiment [2] and 27.3 ± 3% in experiment [3]. In the experiment on rice sheath blight, the “Resistance to rice sheath blight” value turned out to be 20 ± 0%.

In the case of `C[n+]1c2ccccc2c(NC2CCCC2)c2[nH]c3ccccc3c21` [Example 29], the “Relative inhibition rate, living passivation activity test” value in experiment [1] is on record as 30.5 ± 0.9%. Besides, the “Relative inhibition rate, live treatment effect” value in experiment [2] was found to be 36.5 ± 2.3%. In the experiment on rice sheath blight, the “Resistance to rice sheath blight” value is 30 ± 0%. The “Relative inhibition rate, live protection function” value in experiment [3] is given as 38.6 ± 4.6%.

As for `C[n+]1c2ccccc2c(NCCCN)c2[nH]c3ccccc3c21.[I-]` [Example 33], the values for the inhibition at 500 µg/mL in experiment [1], in experiment [2] and in experiment [3] were 49.8 ± 3.1%, 51.7 ± 3.6% and 57.9 ± 4.6%, respectively. Further, the “Resistance to rice sheath blight” value in the experiment with rice sheath blight is reported as 40 ± 0%. Also, the “TMV activity compared with ribavirin” value in experiment [4] is recorded as “better TMV activity than the ribavirin”. Also, in experiment [4], the “anti-TMV activity compared with commercial Ningnanmycin” value is given as “comparable to that of commercial Ningnanmycin”.

With `C[n+]1c2ccccc2c(NC2CCNCC2)c2[nH]c3ccccc3c21.[I-]` [Example 41], the “Resistance to rice sheath blight” value with rice sheath blight was determined as 40 ± 0%. The “TMV activity compared with ribavirin” value in experiment [4] is listed as “better TMV activity than the ribavirin”.

Consider `C[n+]1c2ccccc2c(NCC2CCNCC2)c2[nH]c3ccccc3c21.[I-]` [Example 42], for which the inhibition at 500 µg/mL in experiment [1] came out at 25.1 ± 0.2%; in experiment [2] it was 30.2 ± 2.1%; in experiment [3], 28.1 ± 3%. Further, the “Resistance to rice sheath blight” value in the experiment on rice sheath blight amounted to 25 ± 5%.

As to `CN1CCCC(CNc2c3ccccc3[n+](C)c3c2[nH]c2ccccc23)C1` (stereo not drawn) [Example 46], in the experiment with rice sheath blight, the “Resistance to rice sheath blight” value was 30 ± 0%. Further, the “TMV activity compared with ribavirin” value in experiment [4] is “better TMV activity than the ribavirin”.

In the case of `C[n+]1c2ccccc2c(NCCCN2CCCCC2)c2[nH]c3ccccc3c21` [Example 47], the “Relative inhibition rate, living passivation activity test” value in experiment [1] is reported as 35.7 ± 0.3%. The “Relative inhibition rate, live treatment effect” value in experiment [2] amounted to 33.3 ± 2.0%. Also, in the experiment on rice sheath blight, the “Resistance to rice sheath blight” value was found to be 45 ± 5% and the “bactericidal activity against rice sheath blight” value was “more than 50%”. Besides, the “Relative inhibition rate, live protection function” value in experiment [3] is 36.4 ± 2.8%.

Regarding `Cn1c2c3ccccc3nc-2cc2ccccc21` [cryptolepine], the “activity against Plasmodium falciparum compared with Chloroquine” value with Plasmodium falciparum is “comparable activity against Plasmodium falciparum to Chloroquine”.

One may read the inhibition as the relative decrease from the control value, in per cent.
